Experiment: Energy expenditure by indirect calorimetry, dose-response clinical trial
Format: in vivo, human
Details: for Energy Expenditure: obese non-diabetic females with NAFLD; for Total Energy Expenditure, From (start value): baseline; for Total Energy Expenditure, to (end value): end of trial
From the text: Obese subjects diagnosed with NAFLD and with apparently healthy liver (HL) were matched in pairs based on age, body weight and body fat mass and were randomly divided into Experimental NAFLD group (n=36), Placebo NAFLD (n=36), Experimental HL (n=19) and Placebo-HL group (n=19). Subjects were randomly assigned, in equal numbers, to the phytomedicine experimental groups and the Placebo control group, using the Simple Randomization Procedure. Their daily dietary intake was restricted to 1800±100 kcals, of which 50±5% was in the form of carbohydrates, 30±5% from protein, and 20±5% from fat. Subjects were also instructed to consume all the foods and beverages designated by dieticians and provided by the Institute, and to eat no other food or high calories beverages. Patients were directed to take Experimental Sample and/or Placebo three times a day before meals. During the clinical phase, subjects were required to visit a designated hospital three times a week for physiological and biochemical analysis. Institute provided all foods and beverages by designated dieticians and labeled as B, L, and D for breakfast, lunch and dinner, respectively.
Measurements of Fat Oxidation by Indirect Calorimetry
Energy expenditure (EE) and substrate oxidations were measured by indirect calorimetry as described previously (Ranneries et al., 1998). Oxygen was measured with an electrochemical oxygen sensor, and carbon dioxide was measured by an infrared carbon dioxide sensor (Ametec Carbon Dioxide Analyzer). Calculations of EE and substrate oxidation rates were performed as previously described (Astrup et al., 1991). Protein oxidation was assumed to be constant and amounting to 15% of EE. The error of calculating EE by omitting the exact correction from urinary nitrogen was negligible and impossible to estimate during such a short period of time. The reliability was assessed by the coefficient of variation on resting energy expenditure repeated every week.
This effect was clearly dose-dependent phenomenon. […] Based on our dose-response trial, the optimum dose of Experimental Sample was established as 600 mg per day, which was used in further clinical trials.

Fucoxanthin
increase in daily energy expenditure rate (25 mg fucoxanthin alone): 1152 ± 290 kJ/day | Energy Expenditure (Fucoxanthin 10 mg per day, 2 weeks): 5.69 ± 0.21 kJ/min | Energy Expenditure (Fucoxanthin 10 mg per day, 5 weeks): 5.93 ± 0.15 kJ/min | Energy Expenditure (Fucoxanthin 10 mg per day, 10 weeks): 5.69 ± 0.21 kJ/min | Energy Expenditure (Fucoxanthin 10 mg per day, 16 weeks): 5.98 ± 0.18 kJ/min | Energy Expenditure (Fucoxanthin 10 mg per day, Baseline): 5.82 ± 0.18 kJ/min | Total Energy Expenditure, From (start value) (Fucoxanthin 10 mg per day): 8381 kJ/24 h | Total Energy Expenditure, to (end value) (Fucoxanthin 10 mg per day): 8611 kJ/24 h | Change in Total Energy Expenditure, Net (Fucoxanthin 10 mg per day, p < NS vs placebo): Net 230 ± 147 kJ/24 h | Energy Expenditure (Fucoxanthin 15 mg per day, 2 weeks): 5.89 ± 0.14 kJ/min | Energy Expenditure (Fucoxanthin 15 mg per day, 5 weeks): 5.98 ± 0.17 kJ/min | Energy Expenditure (Fucoxanthin 15 mg per day, 10 weeks): 6.11 ± 0.21 kJ/min | Energy Expenditure (Fucoxanthin 15 mg per day, 16 weeks): 6.39 ± 0.17 kJ/min | Energy Expenditure (Fucoxanthin 15 mg per day, Baseline): 5.85 ± 0.27 kJ/min | Total Energy Expenditure, From (start value) (Fucoxanthin 15 mg per day): 8424 kJ/24 h | Total Energy Expenditure, to (end value) (Fucoxanthin 15 mg per day): 9202 kJ/24 h | Change in Total Energy Expenditure, Net (Fucoxanthin 15 mg per day, p < 0.05 vs placebo): Net 778 ± 260 kJ/24 h | Energy Expenditure (Fucoxanthin 25 mg per day, 2 weeks): 6.02 ± 0.23 kJ/min | Energy Expenditure (Fucoxanthin 25 mg per day, 5 weeks): 5.92 ± 0.27 kJ/min | Energy Expenditure (Fucoxanthin 25 mg per day, 10 weeks): 6.29 ± 0.31 kJ/min | Energy Expenditure (Fucoxanthin 25 mg per day, 16 weeks): 6.72 ± 0.22 kJ/min | Energy Expenditure (Fucoxanthin 25 mg per day, Baseline): 5.92 ± 0.16 kJ/min | Total Energy Expenditure, From (start value) (Fucoxanthin 25 mg per day): 8525 kJ/24 h | Total Energy Expenditure, to (end value) (Fucoxanthin 25 mg per day): 9677 kJ/24 h | Change in Total Energy Expenditure, Net (Fucoxanthin 25 mg per day, p < 0.05 vs placebo): Net 1152 ± 290 kJ/24 h | Energy Expenditure (Fucoxanthin 50 mg per day, 2 weeks): 5.91 ± 0.31 kJ/min | Energy Expenditure (Fucoxanthin 50 mg per day, 5 weeks): 6.32 ± 0.22 kJ/min | Energy Expenditure (Fucoxanthin 50 mg per day, 10 weeks): 6.92 ± 0.31 kJ/min | Energy Expenditure (Fucoxanthin 50 mg per day, 16 weeks): 7.37 ± 0.35 kJ/min | Energy Expenditure (Fucoxanthin 50 mg per day, Baseline): 6.04 ± 0.24 kJ/min | Total Energy Expenditure, to (end value) (Fucoxanthin 50 mg per day): 10613, kJ/24 h | Change in Total Energy Expenditure, Net (Fucoxanthin 50 mg per day, p < 0.001 vs placebo): Net 1915 ± 246 kJ/24 h
